# What was measured:
# COX-2 = biological target: T1, COX-2 (Canis lupus familiaris, UniProt Q8SPQ9); assay: Dog whole blood in vitro activity assay, COX-2; format: cell-based, beagle dog
# T1 construct: in vitro activity study using beagle dog whole blood was conducted; from tissue; host or cells: beagle dog whole blood, stimulated with LPS (by the same method as for human blood)
# T1 sequence (Q8SPQ9 18-604): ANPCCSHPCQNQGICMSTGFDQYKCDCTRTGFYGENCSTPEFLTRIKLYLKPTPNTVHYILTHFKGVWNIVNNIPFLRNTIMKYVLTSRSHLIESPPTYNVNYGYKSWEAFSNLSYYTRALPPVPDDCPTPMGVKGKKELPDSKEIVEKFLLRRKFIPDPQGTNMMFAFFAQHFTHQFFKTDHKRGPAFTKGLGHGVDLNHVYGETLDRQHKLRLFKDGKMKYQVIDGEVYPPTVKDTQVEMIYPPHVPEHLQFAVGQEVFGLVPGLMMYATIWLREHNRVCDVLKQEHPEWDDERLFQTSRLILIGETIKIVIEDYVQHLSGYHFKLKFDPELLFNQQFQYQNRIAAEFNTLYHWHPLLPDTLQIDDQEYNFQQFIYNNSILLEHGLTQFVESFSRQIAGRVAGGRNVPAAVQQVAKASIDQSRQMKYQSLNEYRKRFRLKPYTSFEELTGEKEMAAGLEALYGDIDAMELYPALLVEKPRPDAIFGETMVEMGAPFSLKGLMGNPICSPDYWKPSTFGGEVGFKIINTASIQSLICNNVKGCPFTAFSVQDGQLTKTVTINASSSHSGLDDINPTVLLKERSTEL
# [1] = system: rat paw swelling induced by carrageenan; assay: Rat paw swelling induced by carrageenan (inflammation model); format: in vivo, Wistar rats
# Description: In vivo test: observation of the effect of compound 1 on rat paw swelling induced by carrageenan (inflammation model evaluation)
# 50 rats were randomized into 5 groups, with 10 animals in each group.
# The total volume prepared for each dose group was determined based on the actual weight of the animals. A corresponding volume of purified water was taken, and was added with a sample of the test compounds or of the positive control, to allow homogenous dispersion. Sodium carboxymethyl cellulose was subsequently added, to make a homogenous suspension without obvious agglomerates.
# Methods: 50 Wistar rats ([…], 167-199 g) were used in the study, with 25 males and 25 females. They were randomized into 5 groups, i.e. model group, positive control group, compound 1: low, middle and high dose groups. […] 1 hour after intragastric administration, 0.1 ml 1% carrageenan was intradermally injected in the right hind plantar paw to induce inflammation. After induction of inflammation, paw plantar volume and paw thickness were measured every another hour, consecutively for six times. Paw swelling rate (%) and inhibition rate (%) were calculated.
# Assay methods: volume of the rat right paw was determined using UGO Basile plethysmograph, and the liquid level was kept constant for in the same animal in each measurement; thickness of the right hind paw were measured at the depiction line in the central paw with a digital vernier caliper.
# The group mean and standard deviation of paw swelling rate in each group of animals were calculated, and then the following statistical analysis was performed. The test level was 0.05, and both statistical significance and biological significance were considered in the result analysis.
# Levene's Test was used for homogeneity of variance test. Single-factor analysis of variance (ANOVA) was used for statistical analysis, if no statistical significance (P>0.05) was found. Dunnett's test (parametric method) analysis was used for multiple comparison analysis, if ANOVA found statistical significance (P≦0.05).
# If there was heterogeneity of variance (P≦0.05), then the Kruskal-Wallis test was used. If the test result of Kruskal-Wallis test was statistically significant (P<0.05), then Dunnett's test (non-parametric method) was used for multiple comparison analysis.
# [2] = 7 mg/kg intragastric, 1 h after inflammation
# [3] = 7 mg/kg intragastric, 2 h after inflammation
# [4] = 7 mg/kg intragastric, 3 h after inflammation
# [5] = 7 mg/kg intragastric, 4 h after inflammation
# [6] = 7 mg/kg intragastric, 5 h after inflammation
# [7] = 7 mg/kg intragastric, 6 h after inflammation
# [8] = 10 mg/kg intragastric, 1 h after inflammation
# [9] = 10 mg/kg intragastric, 2 h after inflammation
# [10] = 10 mg/kg intragastric, 3 h after inflammation
# [11] = 10 mg/kg intragastric, 4 h after inflammation
# [12] = 10 mg/kg intragastric, 5 h after inflammation
# [13] = 10 mg/kg intragastric, 6 h after inflammation
# [14] = 14 mg/kg intragastric, 1 h after inflammation
# [15] = 14 mg/kg intragastric, 2 h after inflammation
# [16] = 14 mg/kg intragastric, 3 h after inflammation
# [17] = 14 mg/kg intragastric, 4 h after inflammation
# [18] = 14 mg/kg intragastric, 5 h after inflammation
# [19] = 14 mg/kg intragastric, 6 h after inflammation
compound,measurement,setting,value
"CS(=O)(=O)c1ccc(-n2cnc(Cl)c2-c2ccccc2)nc1 [Compound 1, 2-(4-chloro-5-phenyl-1H-imidazol-1-yl)-5-(methylsulfonyl)pyridine]",IC50COX-1/IC50COX-2,COX-2,83.2
same,IC50,COX-2; read-out: IC50 (μg/mL) COX-2 (converted),2640 nM
same,inhibition rate of plantar paw thickness swelling,[1]; [2],27.44%
same,inhibition rate of plantar paw volume swelling,[1]; [2],0.00%
same,plantar paw thickness swelling rate,[1]; [2],7.97 ± 3.84%
same,plantar paw volume swelling rate,[1]; [2],11.62 ± 4.73%
same,inhibition rate of plantar paw thickness swelling,[1]; [3],63.92%
same,inhibition rate of plantar paw volume swelling,[1]; [3],27.91%
same,plantar paw thickness swelling rate,[1]; [3],5.72 ± 4.27 %
same,plantar paw volume swelling rate,[1]; [3],12.62 ± 4.15%
same,inhibition rate of plantar paw thickness swelling,[1]; [4],76.74%
same,inhibition rate of plantar paw volume swelling,[1]; [4],43.96%
same,plantar paw thickness swelling rate,[1]; [4],4.01 ± 3.33 %
same,plantar paw volume swelling rate,[1]; [4],11.87 ± 3.62 %
same,inhibition rate of plantar paw thickness swelling,[1]; [5],77.45%
same,inhibition rate of plantar paw volume swelling,[1]; [5],58.90%
same,plantar paw thickness swelling rate,[1]; [5],4.29 ± 4.47 %
same,plantar paw volume swelling rate,[1]; [5],11.14 ± 3.73 %
same,inhibition rate of plantar paw thickness swelling,[1]; [6],85.81%
same,inhibition rate of plantar paw volume swelling,[1]; [6],55.32%
same,plantar paw thickness swelling rate,[1]; [6],2.68 ± 3.82 %
same,plantar paw volume swelling rate,[1]; [6],12.53 ± 5.03 %
same,inhibition rate of plantar paw thickness swelling,[1]; [7],89.21%
same,inhibition rate of plantar paw volume swelling,[1]; [7],57.59%
same,plantar paw thickness swelling rate,[1]; [7],1.67 ± 4.28 %
same,plantar paw volume swelling rate,[1]; [7],11.75 ± 4.71 %
same,inhibition rate of plantar paw thickness swelling,[1]; [8],0.00%
same,inhibition rate of plantar paw volume swelling,[1]; [8],0.00%
same,plantar paw thickness swelling rate,[1]; [8],12.91 ± 4.89%
same,plantar paw volume swelling rate,[1]; [8],12.48 ± 5.01%
same,inhibition rate of plantar paw thickness swelling,[1]; [9],50.35%
same,inhibition rate of plantar paw volume swelling,[1]; [9],6.86%
same,plantar paw thickness swelling rate,[1]; [9],7.87 ± 3.91 %
same,plantar paw volume swelling rate,[1]; [9],16.30 ± 5.55%
same,inhibition rate of plantar paw thickness swelling,[1]; [10],60.54%
same,inhibition rate of plantar paw volume swelling,[1]; [10],24.73%
same,plantar paw thickness swelling rate,[1]; [10],6.80 ± 3.68 %
same,plantar paw volume swelling rate,[1]; [10],15.95 ± 5.92%
same,inhibition rate of plantar paw thickness swelling,[1]; [11],69.63%
same,inhibition rate of plantar paw volume swelling,[1]; [11],45.15%
same,plantar paw thickness swelling rate,[1]; [11],5.78 ± 3.69 %
same,plantar paw volume swelling rate,[1]; [11],14.87 ± 5.07 %
same,inhibition rate of plantar paw thickness swelling,[1]; [12],71.80%
same,inhibition rate of plantar paw volume swelling,[1]; [12],44.78%
same,plantar paw thickness swelling rate,[1]; [12],5.32 ± 3.99 %
same,plantar paw volume swelling rate,[1]; [12],15.48 ± 5.58 %
same,inhibition rate of plantar paw thickness swelling,[1]; [13],66.63%
same,inhibition rate of plantar paw volume swelling,[1]; [13],43.68%
same,plantar paw thickness swelling rate,[1]; [13],5.16 ± 3.94 %
same,plantar paw volume swelling rate,[1]; [13],15.61 ± 7.62 %
same,inhibition rate of plantar paw thickness swelling,[1]; [14],33.98%
same,inhibition rate of plantar paw volume swelling,[1]; [14],0.77%
same,plantar paw thickness swelling rate,[1]; [14],7.25 ± 4.10%
same,plantar paw volume swelling rate,[1]; [14],10.82 ± 4.28%
same,inhibition rate of plantar paw thickness swelling,[1]; [15],67.67%
same,inhibition rate of plantar paw volume swelling,[1]; [15],30.59%
same,plantar paw thickness swelling rate,[1]; [15],5.12 ± 3.74 %
same,plantar paw volume swelling rate,[1]; [15],12.15 ± 5.20%
same,inhibition rate of plantar paw thickness swelling,[1]; [16],77.77%
same,inhibition rate of plantar paw volume swelling,[1]; [16],42.44%
same,plantar paw thickness swelling rate,[1]; [16],3.83 ± 2.59 %
same,plantar paw volume swelling rate,[1]; [16],12.20 ± 5.19 %
same,inhibition rate of plantar paw thickness swelling,[1]; [17],79.53%
same,inhibition rate of plantar paw volume swelling,[1]; [17],48.46%
same,plantar paw thickness swelling rate,[1]; [17],3.90 ± 3.54 %
same,plantar paw volume swelling rate,[1]; [17],13.97 ± 6.25 %
same,inhibition rate of plantar paw thickness swelling,[1]; [18],86.47%
same,inhibition rate of plantar paw volume swelling,[1]; [18],53.52%
same,plantar paw thickness swelling rate,[1]; [18],2.55 ± 2.95 %
same,plantar paw volume swelling rate,[1]; [18],13.03 ± 4.88 %
same,inhibition rate of plantar paw thickness swelling,[1]; [19],84.04%
same,inhibition rate of plantar paw volume swelling,[1]; [19],59.93%
same,plantar paw thickness swelling rate,[1]; [19],2.47 ± 2.70 %
same,plantar paw volume swelling rate,[1]; [19],11.10 ± 4.42 %
same,inhibition of the paw swelling rate,"[1]; low, middle and high dose groups (7, 10, 14 mg/kg), 4 hours after inflammation",above 30%

# From patent US9079876B2, “Imidazole derivatives and preparation method and use thereof” (Beijing Orbiepharm Co., Ltd., priority 2010, dated 2015)
